The values below come from US4764533A, “Erythro-1,2-1-pentanones” (Klinge Pharma GmbH, priority 1981, dated 1988).

The target of assay [1] is T1, estradiol receptor (Oryctolagus cuniculus, UniProt G1SML6).
T1 construct: The uterus cytosal of female, prepubertal, white rabbits (New Zealand); from tissue; host or cells: uterus cytosol of female prepubertal New Zealand white rabbits
T1 sequence (G1SML6 1-598): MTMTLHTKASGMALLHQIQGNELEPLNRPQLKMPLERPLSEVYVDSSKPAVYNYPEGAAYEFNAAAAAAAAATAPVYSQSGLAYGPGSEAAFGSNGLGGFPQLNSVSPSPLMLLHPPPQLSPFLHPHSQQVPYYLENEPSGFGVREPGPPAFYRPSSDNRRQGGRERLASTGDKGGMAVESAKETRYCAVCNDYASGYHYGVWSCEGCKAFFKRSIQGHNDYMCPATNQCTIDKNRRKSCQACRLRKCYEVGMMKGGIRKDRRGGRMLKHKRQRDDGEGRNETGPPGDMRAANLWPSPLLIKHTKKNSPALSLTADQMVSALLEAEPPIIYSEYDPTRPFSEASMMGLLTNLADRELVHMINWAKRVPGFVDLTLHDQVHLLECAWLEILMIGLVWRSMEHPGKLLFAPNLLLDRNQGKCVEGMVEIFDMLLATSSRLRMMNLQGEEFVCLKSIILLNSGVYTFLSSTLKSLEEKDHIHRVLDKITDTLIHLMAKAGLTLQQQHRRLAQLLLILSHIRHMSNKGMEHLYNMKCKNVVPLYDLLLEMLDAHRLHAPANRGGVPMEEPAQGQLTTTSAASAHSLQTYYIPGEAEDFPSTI
The assay is described as follows: Bonding affinity to the estradiol receptor (displacement of (^3 H) estradiol, rabbit uterus cytosol). It is filed as binding, rabbit (New Zealand). Conditions: uterus cytosol of female prepubertal rabbits; 18 hours at 40° C.; 2.5×10^-9 M (^3 H) estradiol; read-out: ED50 (concentration of substance displacing 50% (^3 H) estradiol from the estradiol receptor). The source says:
The determination of the binding affinity to the estradiol receptor was effected by means of the rabbit uterus cytosol.
The measurement of the bonding affinity to the estradiol receptor was affected by the method of N. Devleeschouwer, G. Leclercq, A. Danguy and J. C.

Assay [2] concerns mammatumors induced by 7,12-dimethylbenz(a)anthracene. The assay can be described thus: Mammatumor inhibiting effect (7,12-dimethylbenz(a)anthracene-induced mammatumors). It is filed as in vivo, rat (female Spraque-Dawley, Hannover strain). Conditions: 3 mg/kg/day, esophageal tube, 28 days, six times per week; 10 animals; control animals valued at 100%. Here is the method:
The tumor inhibiting action was measured following a four-week treatment with the active ingredient on female rats, with mammatumors induced previously with 7,12-dimethylbenz(a)anthracene.
The tumor inhibiting effect was determined on the model of mammatumors induced by means of 7,12-dimethylbenz(a)anthracene of female Spraque-Dawley rats (Hannover strain), by the method of M. J. Golder (Europ. J. Cancer 11, 571 (1975)) and D. P. Griswold et al. (Cancer Research 26, 2169 (1966)).
The test substance were taken up in a 0.25% agar solution and administered by esophageal tube over a period of 28 days, six times per week. Twice weekly and on the 28th day of the experiment, the number of animals was ascertained and the tumor surface (mm^2 /animal) of the therapy and control animals measured. At the completion of the experiment, the percentage increase of the average tumor surface of the treated animals was determined, compared with the control animals, which were valued at 100%.

The subject of assay [3] is uterus. The assay is described as follows: Antiuterotropic effect (modified Dorfman test, uterus weight). The format is in vivo, rat (Spraque-Dawley, sexually mature female). Conditions: 3 mg/kg/day, esophageal tube, 21 days, six times per week; 10 animals. Here is the method:
The measurement of the antiuterotropic action was effected following a three-week treatment with the active ingredient of sexually mature, female rats. […] The antiuterotropic effect was determined by a modified Dorfman test (R. I. Dorfman, "Methods in Hormone Research II" p. 707, Academic Press, New York-London, 1962), on sexually mature female Spraque-Dawley rats. The test compounds were taken up in a 0.25% aqueous agar suspension and administered by esophageal tube over a period of 21 days, six times per week. Following the completion of the experiment, the uterus weight of animals treated with the active ingredient was related to the uterus weight of the control animals, which received only an empty agar suspension.

With `CC[C@H](c1ccccc1)[C@@H](C(=O)c1ccc(OCCN(C)C)cc1)c1ccccc1` (relative stereo) [Compound 1, erythro-1-(4'-(2-dimethylaminoethoxy)-phenyl)-2,3-diphenyl-1-pentanone], the IC50 in assay [1] worked out at 6000 nM. Also, the “Relative increase of average tumor surface” value in assay [2] was 53%.
`CC[C@H](c1ccccc1)[C@@H](C(=O)c1ccc(OCCN(CC)CC)cc1)c1ccccc1` (relative stereo) [Compound 2, erythro-1-(4'-(2-diethylaminoethoxy)-phenyl)-2,3-diphenyl-1-pentanone]: the “Weight of uterus compared to control animals” value in assay [3] was -54%. In assay [1], the IC50 was 4000 nM.
On to `CC[C@H](c1ccccc1)[C@@H](C(=O)c1ccc(OCCN2CCCC2)cc1)c1ccccc1` (relative stereo) [Compound 3, erythro-2,3-diphenyl-1-(4'-(2-pyrrolidin-1-yl-ethoxy)-phenyl)-1-pentanone], for which the “Weight of uterus compared to control animals” value in assay [3] was -36%. The IC50 in assay [1] was 6000 nM.
On the same counts, the results for `CC[C@H](c1ccccc1)[C@@H](C(=O)c1ccc(OCCN2CCCCC2)cc1)c1ccccc1` (relative stereo) [Compound 4, erythro-2,3-diphenyl-1-(4'-(2-piperidin-1-yl-ethoxy)-phenyl)-1-pentanone] are -28% and 2800 nM.
On the same counts, the results for `CC[C@H](c1ccccc1)[C@@H](C(=O)c1ccc(OCCN(C)C)cc1)c1ccc(OC)cc1` (relative stereo) [Compound 5, erythro-1-(4'-(2-dimethylaminoethoxy)-phenyl)-2-(4'-methoxyphenyl)-3-phenyl-1-pentanone] are -47% and 4500 nM.
Turning to `CC[C@H](c1ccccc1)[C@@H](C(=O)c1ccc(OCCN(CC)CC)cc1)c1ccc(OC)cc1` (relative stereo) [Compound 6, erythro-1-(4'-(2-diethylaminoethoxy)-phenyl)-2-(4'-methoxyphenyl)-3-phenyl-1-pentanone], the IC50 in assay [1] is 500 nM.
Consider `CC[C@H](c1ccccc1)[C@@H](C(=O)c1ccc(OCCN2CCCC2)cc1)c1ccc(OC)cc1` (relative stereo) [Compound 7, erythro-2-(4'-methoxyphenyl)-3-phenyl-1-(4'-(2-pyrrolidin-1-yl-ethoxy)-phenyl)-1-pentanone], for which the “Weight of uterus compared to control animals” value in assay [3] is given as -43%. In addition, the IC50 in assay [1] stood at 1100 nM.
`CC[C@H](c1ccccc1)[C@@H](C(=O)c1ccc(OCCN2CCCCC2)cc1)c1ccc(OC)cc1` (relative stereo) [Compound 8, erythro-2-(4'-methoxyphenyl)-3-phenyl-1-(4'-(2-piperidin-1-yl-ethoxy)-phenyl)-1-pentanone]: in assay [1], the IC50 stood at 1.2 nM.
As for `CC[C@H](c1ccccc1)[C@@H](C(=O)c1ccc(OCCN(C)C)cc1)c1ccc(O)cc1` (relative stereo) [Compound 9, erythro-1-(4'-(2-dimethylaminoethoxy)-phenyl)-2-(4'-hydroxyphenyl)-3-phenyl-1-pentanone], in assay [3], the “Weight of uterus compared to control animals” value is given as -54%. The IC50 in assay [1] is 5.4 nM. For the same molecule, in assay [2], the “Relative increase of average tumor surface” value worked out at 30%.
Turning to `CC[C@H](c1ccccc1)[C@@H](C(=O)c1ccc(OCCN2CCCC2)cc1)c1ccc(O)cc1` (relative stereo) [Compound 10, erythro-2-(4'-hydroxyphenyl)-3-phenyl-1-(4'-(2-pyrrolidin-1-yl-ethoxy)-phenyl)-1-pentanone], the IC50 in assay [1] is 80 nM.
